Laboratory results published in US11691992B2 (Anacor Pharmaceuticals, Inc., priority 2017, dated 2023).

What was measured:
Assay type in all cases: cell-based
[1] = system: TdTomato-modified T. cruzi (CL strain) in Vero cells; experiment: In vitro IC50 measurement of T. cruzi amastigote killing using TdTomato-modified T. cruzi (CL strain); details: Trypanosoma cruzi, 72 h, fluorescence, read-out: IC50: I Org. amastigote Growth T. cruzi CL TdTomato, 3 d
Summary of the method: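 Vero cells were infected with tdTomato-expressing CL-strain parasites and dosed at 5 uM–5 nM. Fluorescence (ex 544/em 612 nm) was read at day 0 and again after 72 h at 37 °C, with day 0 values subtracted. IC50 and IC90 came from nonlinear regression.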

[2] = system: IL3000 T. congolense (drug sensitive) strain; experiment: In vitro Alamar Blue 72 h drug sensitivity assay for T. congolense; details: Trypanosoma congolense; bloodstream form, 69 h + 3 h resazurin, 34° C.; classes A-C; read-out: IC50: I Org. Growth T. congolense IL-3000, 3 d
Summary of the method: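 Bloodstream-form trypanosomes in HMI medium with 20% bovine serum, exposed to compound for 69 h at 34 °C, 5% CO2, then resazurin for 3 h more. Fluorescence read at 536/588 nm. IC50 from 11-point sigmoidal dose-response curves, at least three independent runs.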

[3] = system: bloodstream forms of T. b. rhodesiense STIB 900; experiment: T. brucei rhodesiense STIB 900 growth inhibition assay; details: Trypanosoma brucei; bloodstream forms, 72 h, Alamar Blue; protocol of Example 110; read-out: IC50: I Org. Growth T. brucei rhodesiense STIB 900, 3 d
Summary of the method: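 Bloodstream-form STIB 900 (10^4/well) were cultured in supplemented MEM with 15% horse serum and compound (90 to 0.123 μg/ml, 3-fold steps) for 72 h at 37 °C, 5% CO2. Viability was read by Alamar Blue fluorescence (ex 536/em 588 nm) after a further 2-4 h.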

[4] = system: L. infantum MHOM/MA(BE)/67 amastigotes in primary peritoneal mouse macrophages; experiment: Leishmania infantum intracellular amastigote assay in mouse macrophages; details: Macrophage, 120 h, amastigotes in primary peritoneal mouse macrophages, 5 d, Giemsa staining, read-out: Inhibition of Organism Growth in Leishmania infantum MHOM/MA/BE/67, 5 d
Summary of the method: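 Amastigotes harvested from infected hamster spleen infected primary peritoneal mouse macrophages (5×10^5 amastigotes/well, 2 h, 37 °C). Compounds then present 5 d at 37 °C, 5% CO2. Parasite burden counted by microscopy after Giemsa staining, as % of untreated controls; IC50 from sigmoidal variable-slope fit.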

SMILES | IC50 [1] | IC50 [2] | IC50 [3] | IC50 [4]
O=C(Nc1ccc2c(c1)B(O)OC2)c1cn(-c2ccccn2)nn1 [Example 61, N-(1-hydroxy-1,3-dihydrobenzo[c][1,2]oxaborol-6-yl)-1-(pyridin-2-yl)-1H-1,2,3-triazole-4-carboxamide] | < 600 nM | < 100 nM | < 100 nM | < 3000 nM
O=C(Nc1ccc2c(c1)B(O)OC2)c1nnn(-c2ccccc2F)c1C(F)(F)F [Example 67, 1-(2-Fluorophenyl)-N-(1-hydroxy-1,3-dihydrobenzo[c][1,2]oxaborol-6-yl)-5-(trifluoromethyl)-1H-1,2,3-triazole-4-carboxamide] | – | 100 to 300 nM | 100 to 300 nM | 20000 to 100000 nM
O=C(Nc1ccc2c(c1)B(O)OC2)c1nnn(-c2cccc(F)c2)c1C(F)(F)F [Example 69, 1-(3-Fluorophenyl)-N-(1-hydroxy-1,3-dihydrobenzo[c][1,2]oxaborol-6-yl)-5-(trifluoromethyl)-1H-1,2,3-triazole-4-carboxamide] | – | 100 to 300 nM | 100 to 300 nM | < 3000 nM
O=C(Nc1ccc2c(c1)B(O)OC2)c1nnn(-c2ccc(F)cc2)c1C(F)(F)F [Example 70, 1-(4-Fluorophenyl)-N-(1-hydroxy-1,3-dihydrobenzo[c][1,2]oxaborol-6-yl)-5-(trifluoromethyl)-1H-1,2,3-triazole-4-carboxamide] | – | 100 to 300 nM | 310 to 10000 nM | < 3000 nM
O=C(Nc1ccc2c(c1)B(O)OC2)c1nnn(-c2cccnc2)c1C(F)(F)F [Example 71, N-(1-hydroxy-1,3-dihydrobenzo[c][1,2]oxaborol-6-yl)-1-(pyridin-3-yl)-5-(trifluoromethyl)-1H-1,2,3-triazole-4-carboxamide] | – | < 100 nM | 100 to 300 nM | < 3000 nM
Cc1c(C(=O)Nc2ccc3c(c2)B(O)OC3)nnn1-c1ccccn1 [Example 84, N-(1-hydroxy-1,3-dihydrobenzo[c][1,2]oxaborol-6-yl)-5-methyl-1-(pyridin-2-yl)-1H-1,2,3-triazole-4-carboxamide] | 600 to 1000 nM | < 100 nM | < 100 nM | < 3000 nM
Cc1c(C(=O)Nc2ccc3c(c2)B(O)OC3)nnn1-c1cccnc1 [Example 93, N-(1-hydroxy-1,3-dihydrobenzo[c][1,2]oxaborol-6-yl)-5-methyl-1-(pyridin-3-yl)-1H-1,2,3-triazole-4-carboxamide] | 1100 to 10000 nM | 100 to 300 nM | 310 to 10000 nM | 20000 to 100000 nM
